In experiment [1] the target is T1, S1P1 (Homo sapiens (Human), UniProt P21453). Briefly: S1P1 β-arrestin assay (PathHunter CHO-K1 EDG1). It is filed as cell-based. As to conditions: CHO-EDG-1 cells. How it is done:
2.1 Experimental Materials: Path hunter express CHO-K1 EDG1 β-arrestin GPCR Assay was purchased from DiscoveRx, containing CHO-EDG-1 cells, buffers, substrate-1, substrate-2, cell culture fluid, 96-well cell culture plate.
1) The test compounds were dissolved in DMSO and prepared as a concentration of 20 mM.
2) The concentrations of the test compounds were detected ranging from […] to 20 μM.
4) Assay procedures: OCC culture solution was preheated in water tank at 37° C. Cells were taken out from liquor nitrogen tank, left on the dry-ice, and dissolved in water tank at 37° C. 0.5 ml OCC culture solution was added and blended slowly. The cells were diluted in 11.5 mL OCC culture solution, and 100 μL cell suspension (containing 8333 cells) was added to each well of the 96-well plate. The 96-well plate was incubated for 8 hours under 5% CO2 at 37° C., and 10 μL test compound dissolved in DMSO was added in; 10 μL DMSO was used as negative control. After the plate was incubated for 90 min at 37° C., 55 μL detection solution was added to each well. Then the results were read out by EnVision after the cell plate was incubated for 90 min at room temperature.
The EC50 Value was Calculated by Using Prism 4 Software

Experiment [2] concerns the target T1, S1P1. Put plainly: S1P1 GTPγS binding assay. It is filed as biochemical. The following applies: [35S]-GTPγS, membranes with high-expressed S1P1 (CHO-S1P1). On the procedure:
1. S1P1GTPγS Binding Assay
2) T-75 cell culture plate; 150 mm cell culture dish
3) DMEM cell culture fluid; 10% (v/v) fetal bovine serum; 100 U/ml penicillin-100 μg/ml streptomycin; 2 mM […], 1 mg/ml G-418
4) Cell Lysis Buffer: HEPES 20 mM (pH 7.4), EDTA 10 mM
5) Stock solution: HEPES 20 mM, EDTA 0.1 mM
6) Binding Buffer; HEPES 20 mM (pH 7.4), NaCl 100 mM, MgCl2 5 mM, GDP 1 μM, BSA 0.1% (w/v), DMSO 2.5% (v/v),
7) Washing solution: NaH2PO4 10 mM (pH 7.4)
The test compounds were dissolved in DMSO and prepared as a concentration of 20 mM.
The concentrations of the compounds were detected ranging from 0.3 nM to 20 μM.
Control group: […] SIP and SEW2871 were used as positive control and were purchased from Tocris company, and the binding buffet was as negative control.
Test method: wetting membranes by saponin solution, and preparing [^35S]-GTPγS in binding solution (4×). The test compound was prepared as 4× of the final concentration which was then performed serial 3× dilution in 100% DMSO. Membranes with high-expressed S1P1 were collected in 5 ml binding buffer, and 50 μL was added to 96-well (containing 5 μg membrane protein with high-expressed S1P1). 25 μL, test compound was added in each well. The compound was incubated with the membranes for 30 min at room temperature, then 25 μL [^35S]-GTPγS was added, and the experiment was initiated. The 96-well detection plate was incubated for 1 hour at room temperature, filtered by filtermat B, and washed with washing solution for three times. After the plate was dried for 1 h at 50° C., 8 ml scintillator solution was added and counted using scintillation counter.
Result Analysis and Determination of 50% Inhibitory Concentration (IC50):
The IC50 value was calculated by using (Prism 4) software, and 50% inhibitory concentrations were obtained.

In US9315492B2, “Heterocyclic group contained amino-methanol derivative, and salt, synthetic method and use thereof” (BEIJING FORELAND BIOPHARMA CO., LTD., priority 2012, dated 2016) one finds EC50 and IC50 data, which are given here for 18 compounds.

T1 sequence (P21453 whole entry): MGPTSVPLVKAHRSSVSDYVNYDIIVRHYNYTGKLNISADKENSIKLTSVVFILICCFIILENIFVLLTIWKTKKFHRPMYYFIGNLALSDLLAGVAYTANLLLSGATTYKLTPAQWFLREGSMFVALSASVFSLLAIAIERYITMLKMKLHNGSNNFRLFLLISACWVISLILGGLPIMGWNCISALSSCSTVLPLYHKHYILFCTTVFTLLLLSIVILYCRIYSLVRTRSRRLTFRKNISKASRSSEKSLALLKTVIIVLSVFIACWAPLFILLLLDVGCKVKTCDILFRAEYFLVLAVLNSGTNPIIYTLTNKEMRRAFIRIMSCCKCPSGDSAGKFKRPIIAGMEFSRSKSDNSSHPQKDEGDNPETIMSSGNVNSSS

On to `COCCOc1ccc(-c2nnc(-c3ccc4c(c3)CC(N)(CO)CC4)o2)cc1` (stereo not shown) [Example 10, 7-{5-[4-(2-methoxyethoxy)phenyl]-2-[1,3,4]oxdiazolyl]-2-amino-1,2,3,4-tetrahydro-naphthalen-2-yl-methanol], for which the EC50 at S1P1 [1] amounted to 77 nM. Moreover, on S1P1 [2], the IC50 is 31.7 nM.
At S1P1 [2], `CC(C)Oc1ccc(-c2nnc(-c3ccc4c(c3)CC(N)(CO)CC4)o2)cc1` (stereo not shown) [Example 16, 7-[5-(4-isopropoxyphenyl)-2-1,3,4-oxdiazolyl]-2-amino-1,2,3,4-tetrahydro-naphthalen-2-yl-methanol] came in with an IC50 of 46 nM. That is a double-digit nanomolar value.
At S1P1 [2], `CCNC1(CO)CCc2ccc(-c3nnc(-c4ccc(OC(C)C)c(C)c4)o3)cc2C1` (stereo not shown) [Example 23, 7-[5-(3-methyl-4-isopropoxyphenyl)-2-1,3,4-oxdiazolyl]-2-ethylamino-1,2,3,4-tetrahydro-naphthalen-2-yl-methanol] had an IC50 of 37.6 nM.
Still for that read-out and setting: in the case of `CC(=O)NC1(CO)CCc2ccc(-c3nnc(-c4ccc(OC(C)C)c(C)c4)o3)cc2C1` (stereo not shown) [Example 25, N-{2-hydroxymethyl-7-[5-(3-methyl-4-isopropoxyphenyl)-2-1,3,4-oxdiazolyl]-1,2,3,4-tetrahydro-naphthalen-2-yl}acetamide] it was 45.5 nM.
On the same count and under the same terms, in the case of `Cc1cc(-c2cn(-c3ccc4c(c3)CCC(N)(CO)C4)nn2)ccc1OC(C)C` (stereo not shown) [Example 32, 6-[4-(3-methyl-4-isopropoxyphenyl)-1-1,2,3-triazolyl]-2-amino-1,2,3,4-tetrahydro-naphthalen-2-yl-methanol] it was 125 nM.
Regarding `Cc1cc(-c2cn(-c3ccc4c(c3)CC(N)(CO)CC4)nn2)ccc1OC(C)C` (stereo not shown) [Example 31, 7-[4-(3-methyl-4-isopropoxyphenyl)-1-1,2,3-triazolyl]-2-amino-1,2,3,4-tetrahydro-naphthalen-2-yl-methanol], at S1P1 [1], the half-maximal effective concentration (EC50) came out at 14.3 nM. In addition, the IC50 at S1P1 [2] came to 5 nM.
Taken in the same sequence, the figures for `Cc1cc(-c2noc(-c3ccc4c(c3)CC(N)(CO)CC4)n2)ccc1OC(C)C` (stereo not shown) [Example 27, 7-[3-(3-methyl-4-isopropoxyphenyl)-5-1,2,4-oxdiazolyl]-2-amino-1,2,3,4-tetrahydro-naphthalen-2-yl-methanol] were 20 nM and 1.2 nM.
In the case of `Cc1cc(-c2noc(-c3ccc4c(c3)CCC(N)(CO)C4)n2)ccc1OC(C)C` (stereo not shown) [Example 28, 6-[3-(3-methyl-4-isopropoxyphenyl)-5-1,2,4-oxdiazolyl]-2-amino-1,2,3,4-tetrahydro-naphthalen-2-yl-methanol], the IC50 at S1P1 [2] came out at 473 nM.
`CCOc1ccc(-c2nnc(-c3ccc4c(c3)CC(N)(CO)CC4)o2)cc1OCC` (stereo not shown) [Example 20, 7-[5-(3,4-diethoxyphenyl)-2-[1,3,4]-oxdiazolyl]-2-amino-1,2,3,4-tetrahydro-naphthalen-2-yl-methanol] gave an IC50 on S1P1 [2] of 179 nM.
The compound `COc1ccc(-c2nnc(-c3ccc4c(c3)CC(N)(CO)CC4)o2)cc1C` (stereo not shown) [Example 15, 7-[5-(4-methoxy-3-methylphenyl)-2-1,3,4-oxdiazolyl]-2-amino-1,2,3,4-tetrahydro-naphthalen-2-yl-methanol] had an EC50 on S1P1 [1] of 27 nM. The half-maximal inhibitory concentration (IC50) at S1P1 [2] was determined as 16 nM.
At S1P1 [2], `Cc1cc(-c2nnc(-c3ccc4c(c3)CC(CO)(NS(C)(=O)=O)CC4)o2)ccc1OC(C)C` (stereo not shown) [Example 26, N-{2-hydroxymethyl-7-[5-(3-methyl-4-isopropoxyphenyl)-2-1,3,4-oxdiazolyl]-1,2,3,4-tetrahydro-naphthalen-2-yl}methanesulfonamide] yielded an IC50 of 86 nM.
Compound `CC(C)Oc1ccc(-c2nnc(-c3ccc4c(c3)CC(N)(CO)CC4)o2)cn1` (stereo not shown) [Example 19, 7-[5-(6-isopropoxy-3-pyridyl)-2-[1,3,4]-oxdiazolyl]-2-amino-1,2,3,4-tetrahydronaphthalen-2-yl-methanol] showed an IC50 at S1P1 [2] of 61.2 nM. The IC50 values of the last two compounds are within 1.5-fold of each other.
`Cc1cc(-c2nnc(-c3ccc4c(c3)CC(CO)(N(C)C)CC4)o2)ccc1OC(C)C` (stereo not shown) [Example 24, 7-[5-(3-methyl-4-isopropoxyphenyl)-2-1,3,4-oxdiazolyl]-2-dimethylamino-1,2,3,4-tetrahydro-naphthalen-2-yl-methanol]: the EC50 on S1P1 [1] was determined as 354 nM. At S1P1 [2], the IC50 stood at 46 nM.
At S1P1 [2], `COCCOc1ccc(-c2nnc(-c3ccc4c(c3)CC(N)(CO)CC4)o2)cc1C` (stereo not shown) [Example 18, 7-{5-[4-(2-methoxyethoxy)-3-methylphenyl]-2-1,3,4-oxdiazolyl}-2-amino-1,2,3,4-tetrahydro-naphthalen-2-yl-methanol] displayed an IC50 of 41.1 nM.
Still for that read-out and setting: next, `Cc1cc(-c2nc(-c3ccc4c(c3)CCC(N)(CO)C4)no2)ccc1OC(C)C` (stereo not shown) [Example 30, 6-[5-(3-methyl-4-isopropoxyphenyl)-3-1,2,4-oxdiazolyl]-2-amino-1,2,3,4-tetrahydro-naphthalen-2-yl-methanol]: 749 nM.
Turning to `CC(C)Oc1ccc(-c2nnc(-c3ccc4c(c3)CC(N)(CO)CC4)o2)cc1C(F)(F)F` (stereo not shown) [Example 11, 7-[5-(3-trifluoromethyl-4-isopropoxyphenyl)-2-[1,3,4]oxdiazolyl]-2-amino-1,2,3,4-tetrahydronaphthalen-2-yl-methanol], on S1P1 [1], the EC50 was determined as 3.1 nM. For the same compound, at S1P1 [2], the IC50 came out at 0.4 nM.
The compound `Cc1cc(-c2nc(-c3ccc4c(c3)CC(N)(CO)CC4)no2)ccc1OC(C)C` (stereo not shown) [Example 29, 7-[5-(3-methyl-4-isopropoxyphenyl)-3-1,2,4-oxdiazolyl]-2-amino-1,2,3,4-tetrahydro-naphthalen-2-yl-methanol] displayed a 50% effective concentration (EC50) on S1P1 [1] of 9.9 nM. At S1P1 [2], this compound gave an IC50 of 0.4 nM.
Turning to `COCCOc1ccc(-c2nnc(-c3ccc4c(c3)CC(N)(CO)CC4)o2)cc1C(F)(F)F` (stereo not shown) [Example 17, 7-{5-[4-(2-methoxyethoxy)-3-trifluoromethylphenyl]-2-1,3,4-oxdiazolyl}-2-amino-1,2,3,4-tetrahydro-naphthalen-2-yl-methanol], the IC50 at S1P1 [2] stood at 10.2 nM. That is a double-digit nanomolar value.
